In ChEMBL document CHEMBL1145637, “Dual binding site inhibitors of B-RAF kinase” (Bioorg Med Chem Lett, 2008):
In brackets after ≈: the same amount, converted by molar mass. Activity calls are given as the source filed them. No cut-off for these calls is given here.

Experiments:
[1] = Metabolic stability in human liver microsome after 30 mins; type: ADME; conditions: liver microsomes, read-out: Stability
[2] = (§1) Metabolic stability in rat liver microsome after 30 mins; type: ADME, microsomes; conditions: liver microsomes, read-out: Stability
[3] = target: RAF proto-oncogene serine/threonine-protein kinase (Homo sapiens, UniProt P04049); test: Inhibition of C-RAF kinase
[4] = Aqueous solubility in NaH2PO4 at pH 7.4 after 24 hrs by HPLC; type: physicochemical; conditions: for Activity: buffer, pH 7.4, 24 h; for solubility at 24 h: NaH2PO4 buffer, pH 7.4
[5] = target: Serine/threonine-protein kinase B-raf (Homo sapiens, UniProt P15056)
Description: Inhibition of B-RAF kinase

[6] = target: Serine/threonine-protein kinase B-raf (Homo sapiens, UniProt P15056, V600E)
Description: Inhibition of B-RAF V600E mutant

[7] = Inhibition of ERK phosphorylation
[8] = tested on: Liver microsomes; test: as §1; type: ADME; conditions: microsomes, 0.5 h

Serine/threonine-protein kinase B-raf (Homo sapiens, UniProt P15056), sequence (P15056 whole entry): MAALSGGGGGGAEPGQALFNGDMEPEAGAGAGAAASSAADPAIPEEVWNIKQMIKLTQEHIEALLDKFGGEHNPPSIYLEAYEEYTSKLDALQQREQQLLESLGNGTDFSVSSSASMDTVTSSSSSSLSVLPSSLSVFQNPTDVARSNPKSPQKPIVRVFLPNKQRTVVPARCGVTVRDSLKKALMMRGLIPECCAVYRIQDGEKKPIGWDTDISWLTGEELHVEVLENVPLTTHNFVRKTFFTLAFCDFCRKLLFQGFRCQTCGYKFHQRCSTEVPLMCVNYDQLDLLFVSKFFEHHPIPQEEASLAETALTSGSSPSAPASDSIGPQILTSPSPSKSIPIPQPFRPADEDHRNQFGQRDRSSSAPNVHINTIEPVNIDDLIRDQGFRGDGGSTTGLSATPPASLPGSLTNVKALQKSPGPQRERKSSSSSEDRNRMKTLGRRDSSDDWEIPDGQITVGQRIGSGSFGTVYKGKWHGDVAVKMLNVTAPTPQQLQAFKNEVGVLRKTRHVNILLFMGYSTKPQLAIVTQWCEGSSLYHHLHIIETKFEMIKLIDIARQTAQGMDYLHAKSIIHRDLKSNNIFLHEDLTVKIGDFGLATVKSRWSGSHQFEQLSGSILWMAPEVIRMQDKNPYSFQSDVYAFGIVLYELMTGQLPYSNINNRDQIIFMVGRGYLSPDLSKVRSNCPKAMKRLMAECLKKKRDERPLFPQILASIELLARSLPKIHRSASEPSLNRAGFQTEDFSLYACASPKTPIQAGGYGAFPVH
Serine/threonine-protein kinase B-raf (Homo sapiens, UniProt P15056, V600E), sequence (P15056 2-766 V600E limits assumed): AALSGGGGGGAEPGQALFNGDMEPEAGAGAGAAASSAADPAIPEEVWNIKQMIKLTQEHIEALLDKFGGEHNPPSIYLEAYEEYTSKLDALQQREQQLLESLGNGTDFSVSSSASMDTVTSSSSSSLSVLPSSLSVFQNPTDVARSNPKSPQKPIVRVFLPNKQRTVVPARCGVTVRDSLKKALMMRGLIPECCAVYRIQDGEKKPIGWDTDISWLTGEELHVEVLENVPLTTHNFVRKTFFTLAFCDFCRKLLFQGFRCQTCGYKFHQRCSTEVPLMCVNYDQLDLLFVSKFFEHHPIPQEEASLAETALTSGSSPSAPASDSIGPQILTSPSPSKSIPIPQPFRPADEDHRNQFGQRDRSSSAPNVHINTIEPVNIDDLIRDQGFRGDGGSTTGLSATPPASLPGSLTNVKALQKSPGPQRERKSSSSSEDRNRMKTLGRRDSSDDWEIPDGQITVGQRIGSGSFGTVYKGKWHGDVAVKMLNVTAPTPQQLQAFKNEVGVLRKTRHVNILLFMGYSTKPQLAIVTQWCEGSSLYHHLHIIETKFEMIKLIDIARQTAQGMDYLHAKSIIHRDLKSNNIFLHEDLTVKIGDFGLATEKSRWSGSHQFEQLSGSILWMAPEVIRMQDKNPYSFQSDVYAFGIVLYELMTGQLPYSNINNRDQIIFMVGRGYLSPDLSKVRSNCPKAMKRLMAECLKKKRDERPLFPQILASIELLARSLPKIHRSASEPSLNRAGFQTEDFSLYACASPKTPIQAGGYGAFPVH
RAF proto-oncogene serine/threonine-protein kinase, sequence (P04049 whole entry): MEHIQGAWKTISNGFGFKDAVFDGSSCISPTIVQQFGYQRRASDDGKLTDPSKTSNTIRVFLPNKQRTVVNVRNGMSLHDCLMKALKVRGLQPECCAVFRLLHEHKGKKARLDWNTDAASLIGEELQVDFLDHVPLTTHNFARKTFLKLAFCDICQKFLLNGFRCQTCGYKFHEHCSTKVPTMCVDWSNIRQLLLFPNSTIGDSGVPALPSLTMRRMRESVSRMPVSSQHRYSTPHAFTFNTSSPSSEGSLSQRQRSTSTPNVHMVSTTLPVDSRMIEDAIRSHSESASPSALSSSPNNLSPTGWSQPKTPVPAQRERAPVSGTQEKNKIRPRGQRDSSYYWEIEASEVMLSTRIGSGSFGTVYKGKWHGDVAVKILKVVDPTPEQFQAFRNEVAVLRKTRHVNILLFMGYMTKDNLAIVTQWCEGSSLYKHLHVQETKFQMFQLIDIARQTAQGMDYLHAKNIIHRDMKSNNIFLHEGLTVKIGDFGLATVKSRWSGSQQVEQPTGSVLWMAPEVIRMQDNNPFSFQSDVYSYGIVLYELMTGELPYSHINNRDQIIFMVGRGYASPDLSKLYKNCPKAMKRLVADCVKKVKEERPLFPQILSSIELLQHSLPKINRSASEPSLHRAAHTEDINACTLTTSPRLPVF

Activity [4]	Activity [7]	Activity [8]	Structure (SMILES)	remaining at 0.5 h [1] [%]	remaining at 0.5 h [2] [%]	IC50 [3] [nM]	IC50 [5] [nM]	IC50 [6] [nM]	IC50 [7] [nM]	solubility at 24 h [4] [µM]
Not Active			NC(=O)c1cccc(Nc2nccc(-c3nc(C4CC4)[nH]c3-c3cccc(NS(=O)(=O)Cc4ccc(Cl)c(Cl)c4)c3)n2)c1	76	44	49	887	274		
			O=C(Cc1ccc(Cl)cc1)Nc1cccc(-c2nc(C(F)(F)F)[nH]c2-c2ccnc(NCCN3CCNC3=O)n2)c1	73	34	20	54	40	30000	7.5 (≈ 4.39 µg/mL)
			CC(C)(C)NC(=O)NCCNc1nccc(-c2[nH]c(C3CC3)nc2-c2ccccc2Cl)n1				83			
			CNc1nccc(-c2[nH]c(C3CC3)nc2-c2cccc(NC(=O)Nc3ccc(Cl)c(C(F)(F)F)c3)c2)n1	80	57	5	21	16	1400	0.3 (≈ 0.158 µg/mL)
			CNc1nccc(-c2[nH]c(C(F)(F)F)nc2-c2cccc(NC(=O)Cc3ccc(Cl)cc3)c2)n1	74	81	2	30	18	12600	0.48 (≈ 0.234 µg/mL)
			NC(=O)c1cccc(Nc2nccc(-c3[nH]c(C(F)(F)F)nc3-c3cccc(NC(=O)Cc4ccc(Cl)cc4)c3)n2)c1	71	47	17	108	85	30000	0.35 (≈ 0.207 µg/mL)
			CNc1nccc(-c2[nH]c(C3CC3)nc2-c2cccc(NC(=O)Cc3ccc(Cl)cc3)c2)n1			1	9	3	5100	0.4 (≈ 0.184 µg/mL)
	inactive		NC(=O)c1cccc(Nc2nccc(-c3[nH]c(C4CC4)nc3-c3cccc(NS(=O)(=O)Cc4ccc(Cl)c(Cl)c4)c3)n2)c1							
Not Active			O=C1NCCN1CCNc1nccc(-c2nc(C3CC3)[nH]c2-c2cccc(NS(=O)(=O)Cc3ccc(Cl)c(Cl)c3)c2)n1	85	52	41	343	141		
			O=C1NCCN1CCNc1nccc(-c2nc(C3CC3)[nH]c2-c2cc(Cl)ccc2Cl)n1				10			
		Not Active	CNC(=O)c1cc(Oc2ccc(NC(=O)Nc3ccc(Cl)c(C(F)(F)F)c3)cc2)ccn1 [SORAFENIB]	80					8300	6.3 (≈ 2.93 µg/mL)
			NC(=O)c1cccc(Nc2nccc(-c3[nH]c(C4CC4)nc3-c3cccc(NC(=O)Nc4ccc(Cl)c(C(F)(F)F)c4)c3)n2)c1			31	35	61	2100	0.4 (≈ 0.253 µg/mL)
	inactive		O=C1NCCN1CCNc1nccc(-c2[nH]c(C3CC3)nc2-c2cccc(NS(=O)(=O)Cc3ccc(Cl)c(Cl)c3)c2)n1							
			O=C(Nc1cccc(-c2nc(C3CC3)[nH]c2-c2ccnc(NCCN3CCNC3=O)n2)c1)Nc1ccc(Cl)c(C(F)(F)F)c1	50	44	14	66	22	2300	6.2 (≈ 3.88 µg/mL)
			O=C(Cc1ccc(Cl)cc1)Nc1cccc(-c2nc(C3CC3)[nH]c2-c2ccnc(NCCN3CCNC3=O)n2)c1	38	60	1	7	2	3000	35 (≈ 19.5 µg/mL)
			NC(=O)c1cccc(Nc2nccc(-c3[nH]c(C4CC4)nc3-c3cccc(NC(=O)Cc4ccc(Cl)cc4)c3)n2)c1	53	58	0.5	4	3	2400	0.5 (≈ 0.282 µg/mL)

Structure (SMILES)	Activity [4]	Activity [7]	Activity [8]	remaining at 0.5 h [1] [%]	remaining at 0.5 h [2] [%]	IC50 [3] [nM]	IC50 [5] [nM]	IC50 [6] [nM]	IC50 [7] [nM]	solubility at 24 h [4] [µM]
CNc1nccc(-c2[nH]c(C3CC3)nc2-c2cccc(NS(=O)(=O)Cc3ccc(Cl)c(Cl)c3)c2)n1	Not Active	inactive		60	87	26	469	138		
